Measured values published in patent publication US20240398784A1, “C-LINKED ISOQUINOLINE AMIDES AS LRRK2 INHIBITORS, PHARMACEUTICAL COMPOSITIONS, AND USES THEREOF” (Merck Sharp & Dohme LLC, priority 2021, published 2024).

The molecules below were run against LRRK2 G2019S (Homo sapiens, UniProt Q5S007, G2019S) (assay: LRRK2 G2019S Km ATP LanthaScreen assay). Details: not given.
Format: biochemical

LRRK2 G2019S, sequence (Q5S007 whole entry G2019S): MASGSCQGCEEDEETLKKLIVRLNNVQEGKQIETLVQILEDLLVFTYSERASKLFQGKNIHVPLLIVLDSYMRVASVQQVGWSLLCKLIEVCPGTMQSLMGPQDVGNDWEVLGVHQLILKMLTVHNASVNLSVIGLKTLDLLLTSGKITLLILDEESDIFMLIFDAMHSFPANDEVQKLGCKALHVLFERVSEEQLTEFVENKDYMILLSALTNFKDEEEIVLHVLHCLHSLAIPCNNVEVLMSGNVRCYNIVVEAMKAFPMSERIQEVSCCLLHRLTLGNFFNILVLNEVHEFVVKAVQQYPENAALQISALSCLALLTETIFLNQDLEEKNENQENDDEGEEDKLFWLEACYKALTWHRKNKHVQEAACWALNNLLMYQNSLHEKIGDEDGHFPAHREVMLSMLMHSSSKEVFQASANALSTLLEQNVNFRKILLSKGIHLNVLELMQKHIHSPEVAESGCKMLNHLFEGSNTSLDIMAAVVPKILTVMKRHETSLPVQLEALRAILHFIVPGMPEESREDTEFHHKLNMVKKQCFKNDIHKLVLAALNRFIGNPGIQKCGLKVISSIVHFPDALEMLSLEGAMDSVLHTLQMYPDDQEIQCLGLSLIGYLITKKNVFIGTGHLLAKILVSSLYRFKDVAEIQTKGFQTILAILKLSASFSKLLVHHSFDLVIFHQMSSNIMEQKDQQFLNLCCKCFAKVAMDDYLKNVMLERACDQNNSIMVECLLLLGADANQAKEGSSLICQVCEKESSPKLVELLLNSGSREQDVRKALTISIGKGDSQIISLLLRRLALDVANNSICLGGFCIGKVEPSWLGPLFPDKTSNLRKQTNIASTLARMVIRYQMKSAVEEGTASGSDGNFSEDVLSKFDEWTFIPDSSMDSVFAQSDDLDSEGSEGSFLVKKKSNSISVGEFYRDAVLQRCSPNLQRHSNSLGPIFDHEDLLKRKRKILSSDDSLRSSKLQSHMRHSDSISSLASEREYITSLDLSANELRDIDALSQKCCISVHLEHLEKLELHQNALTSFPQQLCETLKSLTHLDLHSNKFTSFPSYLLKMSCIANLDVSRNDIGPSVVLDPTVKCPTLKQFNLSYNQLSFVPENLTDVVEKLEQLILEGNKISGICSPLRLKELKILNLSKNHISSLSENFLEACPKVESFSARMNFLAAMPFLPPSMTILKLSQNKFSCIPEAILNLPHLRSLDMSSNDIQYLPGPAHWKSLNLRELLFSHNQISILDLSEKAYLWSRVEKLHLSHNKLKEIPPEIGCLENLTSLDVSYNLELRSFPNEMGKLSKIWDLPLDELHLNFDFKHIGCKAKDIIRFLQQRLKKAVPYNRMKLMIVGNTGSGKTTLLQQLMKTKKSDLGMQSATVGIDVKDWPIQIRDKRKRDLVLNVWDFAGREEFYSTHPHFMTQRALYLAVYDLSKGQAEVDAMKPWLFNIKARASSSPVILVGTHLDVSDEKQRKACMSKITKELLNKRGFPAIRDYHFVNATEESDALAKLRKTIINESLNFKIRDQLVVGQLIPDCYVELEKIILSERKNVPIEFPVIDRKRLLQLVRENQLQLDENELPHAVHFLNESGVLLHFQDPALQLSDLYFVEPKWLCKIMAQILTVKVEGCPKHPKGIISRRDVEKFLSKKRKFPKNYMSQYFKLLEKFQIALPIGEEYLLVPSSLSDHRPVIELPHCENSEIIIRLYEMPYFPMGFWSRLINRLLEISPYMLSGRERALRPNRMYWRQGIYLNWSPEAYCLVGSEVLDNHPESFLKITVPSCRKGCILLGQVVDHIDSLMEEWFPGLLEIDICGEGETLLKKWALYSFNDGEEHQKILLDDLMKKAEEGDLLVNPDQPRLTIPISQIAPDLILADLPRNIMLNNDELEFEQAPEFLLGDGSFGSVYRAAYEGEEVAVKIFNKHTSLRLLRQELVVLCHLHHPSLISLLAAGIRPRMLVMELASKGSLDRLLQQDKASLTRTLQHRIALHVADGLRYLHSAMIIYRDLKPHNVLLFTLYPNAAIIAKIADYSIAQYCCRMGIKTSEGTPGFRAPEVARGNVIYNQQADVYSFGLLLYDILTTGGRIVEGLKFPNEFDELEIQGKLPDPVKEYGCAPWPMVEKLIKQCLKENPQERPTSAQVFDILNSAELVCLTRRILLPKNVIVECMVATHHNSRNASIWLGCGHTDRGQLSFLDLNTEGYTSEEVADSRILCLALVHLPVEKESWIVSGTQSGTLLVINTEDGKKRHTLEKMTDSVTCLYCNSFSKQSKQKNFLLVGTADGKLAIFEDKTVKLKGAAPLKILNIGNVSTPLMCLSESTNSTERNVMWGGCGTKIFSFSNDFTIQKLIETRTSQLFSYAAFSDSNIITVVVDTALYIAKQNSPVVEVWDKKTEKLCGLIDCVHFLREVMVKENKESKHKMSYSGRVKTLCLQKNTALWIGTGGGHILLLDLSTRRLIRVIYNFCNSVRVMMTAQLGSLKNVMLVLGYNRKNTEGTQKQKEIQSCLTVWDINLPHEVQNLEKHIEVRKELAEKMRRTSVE

LRRK2 pIC50	SMILES
10.0	O=C(Nc1cc2cc(C3CCN([C@@H]4COC[C@@H]4O)CC3)c(Cl)cc2cn1)C1CC12CCOC2 (single isomer, unassigned) [Ex-8.1, N-(7-chloro-6-(1-((3R,4R or 3S,4S)-4-hydroxytetrahydrofuran-3-yl)piperidin-4-yl)isoquinolin-3-yl)-5-oxaspiro[2.4]heptane-1-carboxamide]

Same assay, conditions: read-out: LRRK2 pIC50 (converted)

IC50 [nM]	SMILES
135	CCC(=O)N1CCC(C(C)C(=O)Nc2cc3cc(C4(C#N)CC45CC5)ccc3cn2)CC1 (centres unmarked) [Ex-2.112]
2.75	O=C(Nc1cc2cc(C3CCOCC3)c(Cl)cc2cn1)C1CC12CCOCC2 (centres unmarked) [Ex-7.10, N-(7-chloro-6-(tetrahydro-2H-pyran-4-yl)isoquinolin-3-yl)-6-oxaspiro[2.5]octane-1-carboxamide]
0.0813	Cn1cc(C2CC2C(=O)Nc2cc3cc(C4(C#N)CC45CC5)ccc3cn2)cn1 (single isomer, unassigned) [Ex-1.24, (1R,2R or 1S,2S)-N-(6-((R or S)-1-cyanospiro[2.2]pentan-1-yl)isoquinolin-3-yl)-2-(1-methyl-1H-pyrazol-4-yl)cyclopropane-1-carboxamide]
35.5	COCC(C)c1cc2cc(NC(=O)C3CC34CCOCC4)ncc2cc1Cl (single isomer, unassigned) [Ex-9.12, N-(7-chloro-6-(1-methoxypropan-2-yl)isoquinolin-3-yl)-6-oxaspiro[2.5]octane-1-carboxamide]
0.224	CC(C)(O)C1CC1C(=O)Nc1cc2cc(C3(C#N)CC34CC4)ccc2cn1 (centres unmarked) [Ex-2.31]
61.7	CC1(C)CC1(C#N)c1ccc2cnc(NC(=O)C3CC3)cc2c1 (single isomer, unassigned) [Ex-18.4, (R or S)-N-(6-(1-cyano-2,2-dimethylcyclopropyl)isoquinolin-3-yl)cyclopropanecarboxamide]
14.5	N#CC1(c2ccc3cnc(NC(=O)C4CC45CCOC5)cc3c2)CC12CC2 (centres unmarked) [Ex-2.66]
85.1	Cc1cc2cnc(NC(=O)C3CC34CCOC4)cc2cc1C1CCN(C2(C)COCC2F)CC1 (single isomer, unassigned) [Ex-15.12, N-(6-(1-(4-fluoro-3-methyltetrahydrofuran-3-yl)piperidin-4-yl)-7-methylisoquinolin-3-yl)-5-oxaspiro[2.4]heptane-1-carboxamide]

The next lines start with the molecule.

SMILES	IC50 [nM]
Cn1ncc(C2CC2C(=O)Nc2cc3cc(C4CCN(C5(C)COCC5O)CC4)c(Cl)cc3cn2)c1C(F)(F)F (single isomer, unassigned) [Ex-4.37, N-(7-chloro-6-(1-(4-hydroxy-3-methyltetrahydrofuran-3-yl)piperidin-4-yl)isoquinolin-3-yl)-2-(1-methyl-5-(trifluoromethyl)-1H-pyrazol-4-yl)cyclopropane-1-carboxamide]	0.0813
CC(C)(O)C1CC1C(=O)Nc1cc2cc(C3CCN(C4(C)COCC4F)CC3)c(Cl)cc2cn1 (single isomer, unassigned) [Ex-6.26, N-(7-chloro-6-(1-(4-fluoro-3-methyltetrahydrofuran-3-yl)piperidin-4-yl)isoquinolin-3-yl)-2-(2-hydroxypropan-2-yl)cyclopropane-1-carboxamide]	0.234
CC1(N2CCC(c3cc4cc(NC(=O)C5C6CCOCC65)ncc4cc3Cl)CC2)COCC1F (single isomer, unassigned) [Ex-6.43, N-(7-chloro-6-(1-(4-fluoro-3-methyltetrahydrofuran-3-yl)piperidin-4-yl)isoquinolin-3-yl)-3-oxabicyclo[4.1.0]heptane-7-carboxamide]	2.82
CC1(N2CCC(c3cc4cc(NC(=O)C5C6COCC65)ncc4cc3Cl)CC2)CCOC1 (single isomer, unassigned) [Ex-6.12, N-(7-chloro-6-(1-(3-methyltetrahydrofuran-3-yl)piperidin-4-yl)isoquinolin-3-yl)-3-oxabicyclo[3.1.0]hexane-6-carboxamide]	8.13
Cc1cc2cnc(NC(=O)C3CC3c3cnn(C)c3)cc2cc1C1CC12CC2 (single isomer, unassigned) [Ex-16.3, 2-(1-methyl-1H-pyrazol-4-yl)-N-(7-methyl-6-(spiro[2.2]pentan-1-yl)isoquinolin-3-yl)cyclopropane-1-carboxamide]	10.5
CC1COCC1(C)N1CCC(c2cc3cc(NC(=O)C4CC45CCOCC5)ncc3cc2Cl)CC1 (single isomer, unassigned) [Ex-6.10, N-(7-chloro-6-(1-(3,4-dimethyltetrahydrofuran-3-yl)piperidin-4-yl)isoquinolin-3-yl)-6-oxaspiro[2.5]octane-1-carboxamide]	110
Cc1cc2cnc(NC(=O)C3CC34CCOC4)cc2cc1C1CCN(C2(C)COCC2F)CC1 (single isomer, unassigned) [Ex-15.8, N-(6-(1-(4-fluoro-3-methyltetrahydrofuran-3-yl)piperidin-4-yl)-7-methylisoquinolin-3-yl)-5-oxaspiro[2.4]heptane-1-carboxamide]	219
CC1(N2CCC(c3cc4cc(NC(=O)C5CC56CCOC6)ncc4cc3Cl)CC2)COCC1F (single isomer, unassigned) [Ex-6.8, (R or S)-N-(7-chloro-6-(1-((3R,4R or 3S,4S)-4-fluoro-3-methyltetrahydrofuran-3-yl)piperidin-4-yl)isoquinolin-3-yl)-5-oxaspiro [2.4] heptane-1-carboxamide]	34.7
CC1(N2CCC(c3cc4cc(NC(=O)C5CC56CCOCC6)ncc4cc3F)CC2)COCC1O (single isomer, unassigned) [Ex-8.3, N-(7-fluoro-6-(1-(4-hydroxy-3-methyltetrahydrofuran-3-yl)piperidin-4-yl)isoquinolin-3-yl)-6-oxaspiro[2.5]octane-1-carboxamide]	0.195
O=C(C[C@@H](O)C(F)(F)F)Nc1cc2cc(C3CCN(C4COC4)CC3)c(Cl)cc2cn1 [Ex-1.35, (R)-N-(7-chloro-6-(1-(oxetan-3-yl)piperidin-4-yl)isoquinolin-3-yl)-4,4,4-trifluoro-3-hydroxybutanamide]	26.3
COC1COCC1N1CCC(c2cc3cc(NC(=O)C4CC45CCOCC5)ncc3cc2Cl)CC1 (single isomer, unassigned) [Ex-6.53, N-(7-chloro-6-(1-(4-methoxytetrahydrofuran-3-yl)piperidin-4-yl)isoquinolin-3-yl)-6-oxaspiro[2.5]octane-1-carboxamide]	3.39
O=C(Nc1cc2cc(C3CCN(C4COC4)CC3)c(Cl)cc2cn1)C1CC1(F)F (single isomer, unassigned) [Ex-1.5, (R or S)-N-(7-chloro-6-(1-(oxetan-3-yl)piperidin-4-yl)isoquinolin-3-yl)-2,2-difluorocyclopropane-1-carboxamide]	5.89
CCC1C(C(=O)Nc2cc3cc(C4CCC(N5CC(F)C5)CC4)c(Cl)cc3cn2)C1c1cnn(C)c1 (single isomer, unassigned) [Ex-11.8, N-(7-chloro-6-(4-(3-fluoroazetidin-1-yl)cyclohexyl)isoquinolin-3-yl)-2-ethyl-3-(1-methyl-1H-pyrazol-4-yl)cyclopropane-1-carboxamide]	0.0813
CC1(N2CCC(c3cc4cc(NC(=O)C5CC56CCOCC6)ncc4cc3Cl)CC2)COC(C2CC2)C1 (single isomer, unassigned) [Ex-6.17, N-(7-chloro-6-(1-(5-cyclopropyl-3-methyltetrahydrofuran-3-yl)piperidin-4-yl)isoquinolin-3-yl)-6-oxaspiro[2.5]octane-1-carboxamide]	3.55
